Assays:
[1] = test system: The tested bacteria; assay: Disc diffusion method, positive control (bacterium not specified); type: cell-based; conditions: positive control 3% H2O2 solution, 27° C., 48 hours
Protocol: Bacteria were grown in nutrient broth test tubes at 27° C. for 24 hrs. The paper discs were sterilized by autoclave in preparation for the disc diffusion method. Each bacteria ([…]), was placed on Nutrient agar (NA) plates and allowed to dry for 3-5 minutes. The paper discs were saturated in 100% concentration of the oregano essential oil (20 ul), and then placed onto each NA plate freshly coated with bacteria. The positive control used was 3% H2O2 solution and the negative control was DI water. The plates were incubated at 27° C. for 48 hours. The zone of inhibition was measured by standard ruler.

[2] = test system: pepper plants; assay: Spraying the emulsions on pepper plants for phytotoxicity symptoms; type: in vivo
[3] = plants sprayed with emulsion of 25% oregano oil with 5% sesame oil made with the emulsifier, data not shown

Compound	Phytotoxicity on pepper plants [2, 3]	other results
OO [P. control, H2O2]		Inhibition zone (mm) [1]: 8 mm
CCCCCCCCCCCCOS(=O)(=O)[O-].[Na+] [SDS]		Phytotoxicity on pepper plants ([2]; in vivo): phytotoxicity
CCCCCCCC/C=C\CCCCCCCC(=O)OCCOCC(OCCO)C1OCC(OCCO)C1OCCO (centres unmarked) [Tween 80]	phytotoxicity	
CCCCCCCCCCCCCCCCCC(=O)[O-].[Na+] [sodium stearate, Sodium Stearate]	very vital	
Triton X100	phytotoxicity	

Source: patent US10285405B2, “Oil carrying particulate matter and uses thereof” (Nobactra Israel Ltd., priority 2013, dated 2019)
